What was measured:
[1] = target: T1, YTHDF1 (361-559) (Homo sapiens, UniProt Q9BYJ9); experiment: Isothermal Titration Calorimetry (ITC); format: binding; details: 25° C.
T1 construct: GST (N, cleaved yes); made in house; host or cells: E. coli BL21 (DE3)
T1 sequence (Q9BYJ9 with tags, fused parts or gaps): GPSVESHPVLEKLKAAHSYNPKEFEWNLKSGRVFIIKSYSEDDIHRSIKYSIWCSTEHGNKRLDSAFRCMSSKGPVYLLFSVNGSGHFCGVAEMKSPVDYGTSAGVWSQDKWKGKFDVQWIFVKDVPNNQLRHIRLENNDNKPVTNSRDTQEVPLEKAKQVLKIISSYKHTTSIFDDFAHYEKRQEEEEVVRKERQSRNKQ
Method: Purified YTHDF1 (361-559) was dialyzed at 4° C. overnight in dialysis buffer (20 mM Hepes (pH 7.4) and 200 mM NaCl). Then dialyzed protein was diluted to 50 μM with dialysis buffer. […] Isothermal titration calorimetry (ITC) was conducted on a Microcal ITC 200 isothermal titration calorimeter (GE Healthcare) at 25° C. 200 μL 50 μM YTHDF1 (361-559) was filled in the sample cell and constantly stirred at 750 rpm; 40 μL 1 mM SAA was filled in the syringe. […] Then in order to make the titration effect more obvious, the nineteen […] injections were changed after calculation into five 2.5 μL injections followed by fourteen 1.9 μL injections. […] The experimental data was analyzed via Microcal ORIGIN (v7.0) software (Microcal Software).
Then, the binding affinity between SAA and YTHDF1 was evaluated. The Isothermal Titration Calorimetry (ITC) assay was performed to accurately test the equilibrium dissociation constants (Kd) between YTHDF1 and SAA. The ITC assay was conducted on a Microcal iTC200 isothermal titration calorimeter (GE Healthcare) for three times independently. Briefly, freshly purified YTHDF1 (50 μM) was titrated with 1 mM SAA at 25° C. in a buffer comprising 20 mM Hepes (pH 7.4) and 200 mM NaCl.

[2] = target: T1, YTHDF1 (361-559); experiment: SPR binding assay
Method: SPR binding assay was conducted at 25° C. on the Biacore T200 instrument (GE Healthcare). YTHDF1 (361-559) was covalently immobilized on a CM5 chip via standard amine-coupling procedure in the condition of 10 mM sodium acetate (pH 5.5).

[3] = target: T1, YTHDF1 (361-559); experiment: Hydrogen deuterium exchange mass spectrometry (HDX MS); format: binding; details: HDX 10 s to 14400 s; many peptides HDX variation over 5%
Method: YTHDF1 (361-559) was incubated with the compound (e.g., SAA) at 4° C. overnight before the measurement. In hydrogen deuterium exchange mass spectrometry (HDX MS), the hydrogen atoms of YTHDF1 (361-559)-apo and YTHDF1 (361-559)-SAA were exchanged with deuterium for 0 s, 10 s, 30 s, 60 s, 1200 s, 3600 s and 14400 s respectively at 10° C. in buffer containing 20 mM Hepes (pH 7.4), 200 mM NaCl and D2O. And the reactions were stopped at 0.5° C. using buffer containing 4 M guanidine hydrochloride, 0.5 M TCEP and 100 mM citric acid (pH 2.3). After deuterium label reaction, the samples were digested at 4° C. by pepsin immobilized on the column in order to obtain peptides of the samples. These peptides were next separated by HPLC and analyzed via mass spectrometry, respectively. HDX MS data was analyzed in HDExaminer software (v2.4.1) and +5% were set as the threshold to pick out those peptides with significant change.
Then, hydrogen deuterium exchange mass spectrometry (HDX MS) experiment was conducted, to determine the binding sites of SAA on YTHDF1.

[4] = target: T2, YTHDF1 mutant H528A (Homo sapiens, UniProt Q9BYJ9, H528A); experiment: FP assay with YTHDF1 mutant H528A; format: binding
T2 construct: GST (N, cleaved yes); made in house; host or cells: E. coli BL21 (DE3)
T2 sequence (Q9BYJ9 with tags, fused parts or gaps H528A): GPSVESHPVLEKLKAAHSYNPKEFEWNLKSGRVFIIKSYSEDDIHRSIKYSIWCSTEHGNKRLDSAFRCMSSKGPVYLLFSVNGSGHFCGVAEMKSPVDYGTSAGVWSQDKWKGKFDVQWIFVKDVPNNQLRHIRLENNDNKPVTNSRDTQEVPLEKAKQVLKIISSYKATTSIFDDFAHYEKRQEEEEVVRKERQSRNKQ
Method: The protein YTHDF1 (361-559) (SEQ ID NO: 2) and its mutants (SEQ ID NOs: 4-13) were cloned into pGEx-6P-1 vector (obtained from YouBio Co, Ltd, Catalog NO: VT1258), and the His-YTHDF1 (361-559) (SEQ ID NO: 3) used in AlphaScreen Assay was cloned into modified pET28a vector (obtained from YouBio Co, Ltd, Catalog NO: VT1207). The vectors were transformed into E. coli BL21 (DE3) cells and cultured at 37° C. When OD value reached 0.6˜0.8, 1 mM Isopropyl-β-D-thiogalactopyranoside was added to overexpress the protein at 16° C. overnight. […] Then, the proteins were further purified via cation exchange (HiTrap SP, GE Healthcare) and finally through a Superdex 75 10/300 column (GE Healthcare). At last, the purified YTHDF1(361-559) and the mutants were kept in buffer which contains 20 mM Hepes (pH 7.4) and 200 mM NaCl. For His-YTHDF1 (361-559), the protein was purified via Ni-NTA chromatography (HisTrap FF, GE Healthcare), followed by cation exchange and Superdex 75 10/300 column in sequence. And the obtained protein was kept in the buffer with the same ingredients.
All of the YTHDF1 (361-559), the 5′-FAM labeled m^6A-containing mRNA (5′-FAM-[…] (m^6A) CUGUG-3′, SEQ ID NO: 14) and the candidate compounds were diluted with assay buffer (20 mM Hepes (pH 7.4), 50 mM NaCl, 0.01% (v/v) tween 20, 5% (v/v) glycerol). […] At last, the mixtures were measured by Envision Readers (PerkinElmer). […]

[5] = system: B16-OVA melanoma; experiment: B16-OVA tumor growth in wild-type mice; format: in vivo, mouse

O=C(/C=C/c1ccc(O)c(O)c1/C=C/c1ccc(O)c(O)c1)O[C@H](Cc1ccc(O)c(O)c1)C(=O)O [SAA, Salvianolic Acid A]
entropy change ΔS [1]: 13.6 cal/mol/deg | Kd ([1]; 50 μM YTHDF1 titrated with 1 mM SAA): 5.71 µM | Kd [2]: 2.52 µM | conformational change of YTHDF1 on binding (deuterium uptake) [3]: significant conformational changes | inhibitory activity against mutant binding to m6A versus wildtype [4]: significantly weaker than that against wildtype YTHDF1 | tumor growth versus DMSO ([5]; 5×10^5 B16-OVA in C57BL/6 mice, 10 μM i.v. 9 days after implantation (FIG. 19)): tumor growth was much slower | tumor growth versus control ([5]; 5×10^5 B16-OVA s.c., 10 μM SAA on day 9 and 11): tumor growth was much slower

— US20240033244A1, “COMPOSITIONS AND METHODS FOR INHIBITING YTHDF1” (SHANGHAI INSTITUTE OF MATERIA MEDICA, CHINESE ACADEMY OF …, priority 2020, published 2024)
